PubChem BioAssay AID248 (DTP/NCI, 2004)
“And” between values parts separate entries of the source, which are not always exact repeats. Equal values may be shown once. Toxic doses and inconclusive results are not listed. Rule as the data show it: active = T/C of 150% or more; inactive = T/C below 125%.

Test system: L1210 leukemia ip in BDF1 mice, survival T/C
Assay: NCI In Vivo Anticancer Drug Screen. Data for tumor model L1210 Leukemia (intraperitoneal) in B6D2F1 (BDF1) mice
Conditions: endpoint: mean survival time, higher = longer survival
How it was run: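 Transplantable tumor model; survival measured in treated vs vehicle control mice. Value = treated/control.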

[1] = dose: 12.5 mg/kg/injection, schedule: Q04DX003 (ip), vehicle: Klucel (hydroxypropylcellulose) (HPC)
[2] = dose: 25.0 mg/kg/injection, schedule: Q04DX003 (ip), vehicle: Klucel (hydroxypropylcellulose) (HPC)
[3] = dose: 50.0 mg/kg/injection, schedule: Q04DX003 (ip), vehicle: Klucel (hydroxypropylcellulose) (HPC)
[4] = dose: 100.0 mg/kg/injection, schedule: Q04DX002 (ip), vehicle: saline with Tween-80
[5] = dose: 200.0 mg/kg/injection, schedule: Q04DX002 (ip), vehicle: saline with Tween-80
[6] = dose: 400.0 mg/kg/injection, schedule: Q04DX002 (ip), vehicle: saline with Tween-80
[7] = dose: 100.0 mg/kg/injection, schedule: Q01DX009 (ip), vehicle: saline with Tween-80
[8] = dose: 100.0 mg/kg/injection, schedule: Q04DX003 (ip), vehicle: saline with Tween-80
[9] = dose: 200.0 mg/kg/injection, schedule: Q01DX009 (ip), vehicle: saline with Tween-80
[10] = dose: 200.0 mg/kg/injection, schedule: Q04DX003 (ip), vehicle: saline with Tween-80
[11] = dose: 400.0 mg/kg/injection, schedule: Q01DX009 (ip), vehicle: saline with Tween-80
[12] = dose: 400.0 mg/kg/injection, schedule: Q04DX003 (ip), vehicle: saline with Tween-80
[13] = dose: 100.0 mg/kg/injection, schedule: Q01DX009 (ip), vehicle: Klucel (hydroxypropylcellulose) (HPC)
[14] = dose: 100.0 mg/kg/injection, schedule: Q04DX002 (ip), vehicle: Klucel (hydroxypropylcellulose) (HPC)
[15] = dose: 200.0 mg/kg/injection, schedule: Q01DX009 (ip), vehicle: Klucel (hydroxypropylcellulose) (HPC)
[16] = dose: 200.0 mg/kg/injection, schedule: Q04DX002 (ip), vehicle: Klucel (hydroxypropylcellulose) (HPC)
[17] = dose: 100.0 mg/kg/injection, schedule: Q04DX003 (ip), vehicle: Klucel (hydroxypropylcellulose) (HPC)
[18] = dose: 200.0 mg/kg/injection, schedule: Q04DX003 (ip), vehicle: Klucel (hydroxypropylcellulose) (HPC)
[19] = dose: 400.0 mg/kg/injection, schedule: Q04DX003 (ip), vehicle: Klucel (hydroxypropylcellulose) (HPC)
[20] = dose: 400.0 mg/kg/injection, schedule: Q01DX009 (ip), vehicle: Klucel (hydroxypropylcellulose) (HPC)

Measured: T/C

OC(/C=C/C(O)c1ccccc1)c1ccccc1 (configuration not stated)
inactive: dose: 12.5 mg/kg/injection, schedule: Q01DX009 (ip), vehicle: Klucel (hydroxypropylcellulose) (HPC) 97 % of control | [1] 95 % of control | dose: 25.0 mg/kg/injection, schedule: Q01DX009 (ip), vehicle: Klucel (hydroxypropylcellulose) (HPC) 98 % of control | [2] 100 % of control | dose: 50.0 mg/kg/injection, schedule: Q01DX009 (ip), vehicle: Klucel (hydroxypropylcellulose) (HPC) 98 % of control | [3] 94 % of control

CCCCCCCCCC(=O)Nc1c(C)cccc1C
inactive: [4] 94 % of control | [5] 111 % of control | [6] 94 % of control

OC(COc1ccc(Cl)cc1)COc1ccc(Cl)cc1
inactive: dose: 100.0 mg/kg/injection, schedule: Q01DX001 (ip), vehicle: saline with Tween-80 95 % of control | [7] 97 % of control | [8] 98 % of control | [9] 98 % of control | [10] 103 % of control | [11] 101 % of control | [12] 95 % of control

Cc1cc(C)c(NC(=O)Nc2cccc(F)c2)c(C)c1
inactive: [13] 96 % of control | [14] 98 % of control | [15] 105 % of control | [16] 102 % of control | dose: 400.0 mg/kg/injection, schedule: Q04DX002 (ip), vehicle: Klucel (hydroxypropylcellulose) (HPC) 102 % of control

CC(=O)CC(=O)NCC(CCN(C)C)(c1cccc2ccccc12)C(C)C (configuration not stated)
inactive: dose: 12.5 mg/kg/injection, schedule: Q04DX003 (ip), vehicle: saline 105 % of control | dose: 25.0 mg/kg/injection, schedule: Q04DX003 (ip), vehicle: saline 97 % of control | dose: 50.0 mg/kg/injection, schedule: Q04DX003 (ip), vehicle: saline 99 % of control

c1ccc2c(c1)Nc1ccccc1[As]2C1CCCCC1
inactive: dose: 12.5 mg/kg/injection, schedule: Q04DX002 (ip), vehicle: saline with Tween-80 99 % of control | dose: 25.0 mg/kg/injection, schedule: Q04DX002 (ip), vehicle: saline with Tween-80 99 % of control | dose: 50.0 mg/kg/injection, schedule: Q04DX002 (ip), vehicle: saline with Tween-80 101 % of control

C[C@]12CC[C@H]3[C@@H](CC=C4C[C@@H](O)CC[C@@]43C)[C@@H]1CC[C@@H]2N
inactive: dose: 100.0 mg/kg/injection, schedule: Q01DX001 (sc), vehicle: steriod suspending solution 98 % of control | [4] 105 % of control | dose: 200.0 mg/kg/injection, schedule: Q01DX001 (sc), vehicle: steriod suspending solution 101 % of control | [5] 112 % of control | dose: 400.0 mg/kg/injection, schedule: Q01DX001 (sc), vehicle: steriod suspending solution 101 % of control | [6] 118 % of control

O=C(NC(Cc1ccccc1)C(=O)O)c1ccccc1 (configuration not stated)
inactive: [7] 91 % of control | [8] 94 % of control and 92 % of control | [9] 95 % of control | [10] 96 % of control and 95 % of control | [11] 90 % of control | [12] 97 % of control and 90 % of control

C=C(C=O)C1CCC2=C(CCC3(C)C(C(C)CCCC(C)C)CCC23C)C1(C)CCC#N (configuration not stated)
inactive: [8] 93 % of control | [10] 96 % of control | [12] 93 % of control

CN(c1ccccc1)S(=O)(=O)c1ccccc1
inactive: [7] 100 % of control | [8] 97 % of control | [9] 106 % of control | [10] 97 % of control | [11] 90 % of control | [12] 92 % of control

Clc1nc2ccccc2nc1C(Cl)Cl
inactive: dose: 100.0 mg/kg/injection, schedule: Q01DX001 (ip), vehicle: Klucel (hydroxypropylcellulose) (HPC) 101 % of control | dose: 200.0 mg/kg/injection, schedule: Q01DX001 (ip), vehicle: Klucel (hydroxypropylcellulose) (HPC) 110 % of control

O/C(=C/C(=S)S)c1cccs1
inactive: dose: 0.78 mg/kg/injection, schedule: Q01DX009 (ip), vehicle: water 103 % of control | dose: 1.56 mg/kg/injection, schedule: Q01DX009 (ip), vehicle: water 105 % of control | dose: 3.12 mg/kg/injection, schedule: Q01DX009 (ip), vehicle: water 102 % of control | dose: 6.25 mg/kg/injection, schedule: Q01DX009 (ip), vehicle: water 95 % of control | dose: 12.5 mg/kg/injection, schedule: Q04DX003 (ip), vehicle: water 102 % of control | dose: 25.0 mg/kg/injection, schedule: Q04DX003 (ip), vehicle: water 94 % of control | dose: 50.0 mg/kg/injection, schedule: Q04DX003 (ip), vehicle: water 100 % of control

O=C1c2ccccc2-c2cc(Cl)c(Cl)cc21
inactive: [17] 96 % of control | [18] 103 % of control | [19] 105 % of control

CNC(=O)C1OC(n2cnc3c(N)ncnc32)C2OC(C)(C)OC12 (configuration not stated)
inactive: dose: 100.0 mg/kg/injection, schedule: Q01DX005 (ip), vehicle: saline 97 % of control | dose: 200.0 mg/kg/injection, schedule: Q01DX005 (ip), vehicle: saline 101 % of control

CCOC(=O)NC(NC(=O)OCC)C(NC(=O)OCC)NC(=O)OCC
inactive: dose: 100.0 mg/kg/injection, schedule: Q01DX001 (ip), vehicle: carboxymethylcellulose (CMC) 87 % of control | dose: 200.0 mg/kg/injection, schedule: Q01DX001 (ip), vehicle: carboxymethylcellulose (CMC) 91 % of control | dose: 400.0 mg/kg/injection, schedule: Q01DX001 (ip), vehicle: carboxymethylcellulose (CMC) 91 % of control

O=C(O)CCCCCCCCCCN1C(=O)CCC1=O
inactive: dose: 100.0 mg/kg/injection, schedule: Q04DX003 (ip), vehicle: carboxymethylcellulose (CMC) 98 % of control | dose: 200.0 mg/kg/injection, schedule: Q04DX003 (ip), vehicle: carboxymethylcellulose (CMC) 92 % of control | dose: 400.0 mg/kg/injection, schedule: Q04DX003 (ip), vehicle: carboxymethylcellulose (CMC) 104 % of control

C=CCNC(=S)Nc1cccc2ccccc12
inactive: [1] 105 % of control | [2] 96 % of control | [3] 105 % of control

CCC(CC)(COS(=O)(=O)c1ccc(C)cc1)COS(=O)(=O)c1ccc(C)cc1
inactive: [13] 93 % of control | [15] 89 % of control | [18] 94 % of control | [20] 88 % of control | [19] 96 % of control

O=C(O)COc1ccc(F)c(F)c1F
inactive: dose: 100.0 mg/kg/injection, schedule: Q04DX002 (ip), vehicle: other 107 % of control | dose: 200.0 mg/kg/injection, schedule: Q04DX002 (ip), vehicle: other 100 % of control | dose: 400.0 mg/kg/injection, schedule: Q04DX002 (ip), vehicle: other 91 % of control

NNC(=O)CNc1ccc(F)c(F)c1
inactive: [14] 104 % of control | [16] 108 % of control

CC(C)=C1C2CCC1C(COS(=O)(=O)c1ccc(C)cc1)C2COS(=O)(=O)c1ccc(C)cc1 (configuration not stated)
inactive: [13] 96 % of control | [17] 98 % of control | [15] 100 % of control | [18] 104 % of control | [20] 94 % of control | [19] 102 % of control

O=C(COc1ccc(Cl)cc1)Nc1cccc(C(F)(F)F)c1
inactive: [13] 96 % of control | [17] 102 % of control | [15] 89 % of control | [18] 93 % of control | [20] 91 % of control | [19] 93 % of control

CNC(=O)Oc1cccc(NC(=O)C=C(C)C)c1
inactive: [7] 91 % of control | [9] 89 % of control

CCCN=Cc1ccccc1O.CCCN=Cc1ccccc1O.[Ni]
inactive: dose: 75.0 mg/kg/injection, schedule: Q01DX001 (ip), vehicle: other 95 % of control | dose: 150.0 mg/kg/injection, schedule: Q01DX001 (ip), vehicle: other 108 % of control
